In assay [1] the test system is men with mild to moderate androgenic alopecia. The conditions noted are these: 1 milligram per day, 24 months, 100 men; cited from earlier work.
In another assay the test system is normal shaved mice. The conditions noted are these: after about 20 days; cited from earlier work.
In assay [2] the target is T1, 5α-Reductase Type 1 enzyme (Homo sapiens, UniProt P18405).
T1 sequence (P18405 1-259): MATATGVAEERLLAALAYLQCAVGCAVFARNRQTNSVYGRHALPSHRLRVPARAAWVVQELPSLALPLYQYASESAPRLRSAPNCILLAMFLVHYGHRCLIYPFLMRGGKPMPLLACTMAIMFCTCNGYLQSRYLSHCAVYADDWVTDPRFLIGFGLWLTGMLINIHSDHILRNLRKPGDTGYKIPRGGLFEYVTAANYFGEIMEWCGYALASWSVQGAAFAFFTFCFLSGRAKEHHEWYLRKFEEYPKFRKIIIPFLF
In words: Inhibition of 5α-Reductase Type 1. It is filed as biochemical. From the text:
(§1) The different free fatty acids of medium and long saturated chains and long unsaturated chains are shown, together with esterified fatty acids, oxidized fatty acids, fatty alcohols, phytosterols, and other components. The magnitude of the activity is designated by “none,” “moderate” or “very active” (FIG. 3). The various constituents shown in the table of FIG. 2 are also shown and listed as free fatty acid molecules with: a) medium, saturated chains, b) long, saturated chains, and c) long unsaturated chains. There are esterified fatty acids, oxidized fatty acids, and fatty alcohols. These tables support other evidence that the five active free fatty acids for prostate and hair health are lauric, myristic, oleic, linoleic and linolenic free fatty acids.
Reference is now made to FIGS. 7B and 7C showing the use of a supercritical CO2 extracted LSESr and Permixon®.

The target of assay [3] is T2, 5α-Reductase Type 2 enzyme (Homo sapiens, UniProt P31213).
T2 sequence (P31213 1-254): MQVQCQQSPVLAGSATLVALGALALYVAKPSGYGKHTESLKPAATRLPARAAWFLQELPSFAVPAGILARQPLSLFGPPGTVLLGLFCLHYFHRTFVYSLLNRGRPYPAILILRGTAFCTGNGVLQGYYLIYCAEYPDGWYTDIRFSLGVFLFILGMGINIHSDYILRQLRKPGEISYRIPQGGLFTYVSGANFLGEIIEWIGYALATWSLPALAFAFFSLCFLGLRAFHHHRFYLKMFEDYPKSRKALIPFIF
The assay is described as follows: Inhibition of 5α-Reductase Type 2 (Inhibition Experiments 1 and 2). The assay is classed as biochemical.
Text: as §1
Data are shown in the graphs and bar charts of FIGS. 5 and 6 where data are reported as the effectiveness to inhibit enzyme activity (IC50). […]
Inhibition Experiment 2 shown in FIG. 6 determined the possible impact of Permixon® product matrix (PEG) on an in vitro assay and the pegylated and conventional ultra-high purity supercritical CO2 extract having the PEG matrix (U4602-PEG) was compared to the commercially available Permixon® and the conventional unpegylated product (U4602) for their ability to inhibit the 5α-Reductase 2 enzyme. […]

The text below walks through data of US12551524B2 (U.S. NUTRACEUTICALS, INC., priority 2021, dated 2026).

Structures are written as SMILES.

As to `CC(C)(C)NC(=O)[C@H]1CC[C@H]2[C@@H]3CC[C@H]4NC(=O)C=C[C@]4(C)[C@H]3CC[C@]12C` [finasteride], the “men who noted an improvement” value in assay [1] is listed as 68%.

As for `CCCCC/C=C\C/C=C\CCCCCCCC(=O)O` [linoleic acid], the hair growth entry in the assay on normal shaved mice is “about 100%”.

On to `CCCCCCCC/C=C\CCCCCCCC(=O)O` [oleic acid], for which the “effect on 5α-Reductase-1 (in words)” value in assay [2] is reported as “especially effective”. Further, the “effect on 5α-Reductase-2 (in words)” value in assay [3] is “not as much”.
